Reference: publication PMC12040169 (PLOS Biology, 2025)

Test: in vitro
Conditions: human, hela cells, % viability

Structure (SMILES) | viability at 28.5 h, 10 µM [%] | viability at 28.5 h, 10 µM (bulk resorufin, single well) [%]
CC(=O)N1CCN(c2nnc(-c3ccccc3)o2)CC1 [CBK170332] | 87.9 | –
CC1CCN(Cc2ccc(-c3nnn(CC(=O)NCc4ccc(O)cc4)n3)cc2)CC1 [CBK144156C] | 90.9 | –
CC(C)OC(=O)CCNC(=O)c1cccc(S(=O)(=O)N2CCCC2)c1 [CBK306090] | 91.1 | –
Cc1cc(C(=O)CSc2nncs2)c(C)n1C(C)c1ccccc1 (stereo not drawn) [CBK297934] | 86.8 | –
O=C(Cc1c[nH]c2ccccc12)N1CCc2ccccc21 [CBK200366] | 107 | –
Cc1cccc(-c2ncc(C(=O)NCCN3CCOCC3)cc2-c2ccc(O)cc2)c1 [CBK037435] | 105 | –
Cc1ccc(NC(=S)N2CCCC2C(=O)O)c(C)c1 (stereo not drawn) [CBK007148] | 79.3 | –
N#Cc1c(Nc2cccc(F)c2)sc2c(O)cc(O)nc12 [CBK270250] | 100 | –
OCCNc1nccnc1-c1ccc2c(c1)OCO2 [CBK088984] | 95 | –
Cc1c(NC(=O)Nc2ccc(Cl)cc2)sc(=S)n1C [CBK027495] | 93.4 | –
CC1CCc2c(sc3ncnc(NC4CCN(CC(N)=O)CC4)c23)C1 (stereo not drawn) [CBK305008] | 91.7 | –
CC(=O)Nc1cccc(-n2ncc(-c3cccnc3)n2)c1 [CBK112811] | 98.7 | –
O=C(COc1ccc(Cl)cc1Br)N1CCCCCC1 [CBK058661] | 82.8 | –
O=C(COc1ccc2ccccc2c1)Nc1ccc(N2CCN(Cc3ccccc3)CC2)cc1 [CBK266104] | 98.3 | –
CCOC(=O)C1=C(C)NC(=S)NC1c1ccc(O)c(OCC)c1[N+](=O)[O-] (stereo not drawn) [CBK265624] | 102 | –
Cc1cc(-c2cc(=O)n(Cc3ccccc3F)nc2C2CC2)on1 [CBK284366] | 87.2 | –
CN(C)c1nc(Cl)nc(N(C)C#N)n1 [CBK025922] | 87.7 | –
C=CCNC(=O)N[C@H]1CCN2C(=O)c3ccc(Cl)cc3NC(=O)[C@@H]2C1 [CBK289569] | 95.9 | –
CC(C)n1cc(C(=O)N2CCCCC2c2nc3ccccc3[nH]2)cn1 (stereo not drawn) [CBK283679] | 102 | –
Cc1cc(C[C@@H]2COC[C@H]2NCc2ccc(Cl)cc2)on1 [CBK285402] | 93.3 | –
CN1CCN(C(=O)c2sccc2NS(=O)(=O)c2ccc3ccccc3c2)CC1 [CBK004631] | 91.7 | –
Nc1ncc(-c2ccc(C(=O)N3CCOCC3)cc2)nc1C(=O)NC1CCCCC1 [CBK149160] | 89.3 | –
NC(=S)NNC(=O)Nc1ccccc1 [CBK261595] | 96.6 | –

Structure (SMILES) | viability at 28.5 h, 10 µM [%] | viability at 28.5 h, 10 µM (bulk resorufin, single well) [%]
COc1ccc(CCCC(=O)Nc2cc3cccnc3c(Br)n2)cc1 [CBK119486] | 99.6 | –
C=CCn1c(Cc2csc(NC(=O)c3ccc(C)cc3)n2)n[nH]c1=S [CBK295292] | 96.4 | –
O=C(NC(c1cccnc1)c1ccc2c(c1)OCO2)C1CCN(CCc2cccs2)CC1 (stereo not drawn) [CBK148503] | 105 | –
CN1CCN(C(=O)CCC2CCCO2)C(c2ccccc2)C1 (stereo not drawn) [CBK282015] | 101 | –
CC(C)(CNC(=O)CN1CCOCC1)NC(=O)OC(C)(C)C [CBK089350] | 88.7 | –
Cc1cc(Cl)ccc1OC(C)C(=O)NCc1ccccn1 (stereo not drawn) [CBK265441] | 98.8 | –
CCN(CC(=O)Nc1ccccc1OC)S(=O)(=O)c1ccccc1 [CBK269428] | 97.1 | –
CCC1CN(Cc2ccccc2)CCN1c1cncc(Cl)n1 (stereo not drawn) [CBK003645] | 112 | –
CC(C)C(=O)N1CCC(c2[nH]ncc2-c2ccncc2)CC1 [CBK284237] | 79.6 | –
O=C(Nc1sc2c(c1CN1CCCCCC1)CCCC2)c1ccccc1 [CBK261811] | 91 | –
CC1CCCCC1NC(=O)NC(=O)Cn1nnc2ccccc2c1=O (stereo not drawn) [CBK306046] | 90.2 | –
CCC(=O)N1CCc2cc(C(O)CN3CCCCC3C)ccc21 (stereo not drawn) [CBK283112] | 105 | –
CC(C)CN(Cc1ccc2c(c1)OCO2)C(=O)NCc1ccc2c(c1)OCO2 [CBK159071] | 96.4 | –
CC(C)c1nnc(C2(c3ccc(Br)cc3)CCOCC2)o1 [CBK306230] | 86.4 | –
C[C@H]1CN2C[C@H](O)CC2CN1Cc1cccc2ccccc12 (stereo partly drawn) [CBK284717] | 92.5 | –
N#CC1(c2ccccc2)CCN(C(=O)c2ccc(S(N)(=O)=O)cc2)CC1 [CBK091397] | – | 96.5
CCn1cc(S(=O)(=O)NC2(c3ccccc3)CCCC2)cn1 [CBK282767] | 90.6 | –
Cc1cc(NS(=O)(=O)c2ccc(NC(=O)c3ccc(Br)cc3)cc2)no1 [CBK265371] | 95.6 | –
c1ccc2c(CCN3CCC(Oc4nccnc4OCCN4CCOCC4)CC3)c[nH]c2c1 [CBK082939T] | 88.6 | –
Cc1ccc(C(=O)N2CN(C(=O)CNCC(C)C)CC2(C)C)cc1 [CBK089576C] | 96 | –
CC1=C[C@@H](CO)[C@H](C(C)C)C[C@H]1CC(=O)NCc1cccnc1 [CBK289218] | 81.7 | –
Cc1ccc(CNc2c(-c3ccco3)nc3cnccn23)cc1 [CBK283693] | 89.3 | –
